# Measurements as given in patent publication US20050064384A1, “Recruitment of mst1 or mst2 protein kinase to induce apoptosis in eukaryotic cells” (priority 2001, published 2005).
# “Also recorded” adds a separate entry of the source. Peptide text beside a SMILES is read from it. * marks the point of attachment. Cbz = O=C(OCc1ccccc1)*; CH2F = FC*
# Columns and labels:
# Type in all cases: cell-based
# [1] = test system: HEK293 cells; experiment: Apoptosis assay in HEK293 cells (trypan blue exclusion); details: incubation with zVAD-FMK, data not shown
# Protocol: Transient transfections were performed using LIPOFECTAMINE™ transfection reagent (Gibco BRL, Gaithersburg, Md.) according to the manufacturer's instructions. […] Each well was transfected with a total of 0.5 μg DNA and 3.5 μl LIPOFECTAMINE™ transfection reagent.
# [2] = test system: NIH3T3 cells; experiment: Annexin V labeling in NIH 3T3 cells (FACS); details: zVAD-FMK 42 μM added at the time of transfection; cells harvested 24 hours later; NORECAAX + wild type MST1, or myrMST1
# Protocol: Annexin V labeling in NIH 3T3 cells. The assay was as described in (van Engeland et al., Cytometry, 24: 131-139 (1996)) with some modifications. NIH 3T3 cells were plated at 3-4×10^5 per well in a 6-well plate the day before transfection. Cells were transfected in duplicate with 6 μg of DNA and 10 μl of LIPOFECTAMINE™ 2000 transfection reagent (GIBCO BRL, Gaithersburg, Md.) in the presence of 10% serum, as recommended by manufacturer, and left for 19-23 hours. In some experiments, Z-Vad-FMK (Calbiochem) was added to 42 μM (final concentration) at the time of transfection. Rat annexinV, purified from liver or recombinant, labeled with Alexa 488 dye was added to the culture media to 1 mg/ml and cells were incubated 5 minutes at 37° C., followed by 25 minutes at room temperature in the dark. Media with floating cells was transferred to 5 ml centrifuge tubes on ice; the plates were washed twice with 1 ml of HBS (20 mM HEPES, pH 7.4, 150 mM NaCl, 2.5 mM CaCl2) and the washes were added to the tubes with media. Floating cells were pelleted, resuspended in 3 ml of HBS and pelleted again. Adherent cells were scraped into 1 ml HBS, pooled with floating cells from the same dish and resuspended by vortexing. […] Cells were analyzed by Coulter EPICS V XL flow cytometer; the percent of annexinV-positive cells was calculated by the cytometer software. […]
# [3] = test system: Jurkat cells; experiment: Jurkat cell survival by flow cytometry (GFP positive live cells); details: incubation with zVAD-FMK, data not shown
# Protocol: The Jurkat/T antigen cell line was cultured in complete IMDM medium supplemented with 10% FCS, 2 mM glutamine and gentamycin (50 μg/ml) in a humidified incubator with 5% CO2 in air at 37° C. The cells were kept at a density of 0.5-1×10^6/ml. Aliquots containing 3×10^6 Jurkat cells were electorporated at 250 volts and 960 μF with mixtures of plasmids as indicated in the Figures together with 1 μg of cDNA encoding GFP. Twenty-four hours post transfection, cell survival was analyzed by flow cytometry using a previously optimized program to measure percentage of live cells that are GFP positive present in forward scatter/side scatter gate in each experimental condition (Vermes et al., J. Immunol. Meth., 243: 167-190 (2000)). The vital GFP positive cells were selected on the basis of unchanged scatter signals when compared to untransfected cells and the apoptotic cell population with decreased FS and increased SS was excluded from the analysis. The data was expressed as “percent cells surviving” with vector controls set to 100%.
structure (smiles),measurement,setting,value
COC(=O)C[C@H](NC(=O)[C@H](C)NC(=O)[C@@H](NC(=O)OCc1ccccc1)C(C)C)C(=O)CF [zVAD-FMK] (Cbz-Val-Ala-Asp(OMe)-CH2F),suppression of killing caused by low doses of NORECAAX with MST1,[1],suppressed
same,suppression of NORECAAX and MST1-induced annexin V binding (staining),[2],suppresses; also recorded: fully suppressed
same,suppression of killing caused by low doses of NORECAAX with MST1,[3],suppressed
